Among the data in ChEMBL document CHEMBL5321229, “Conformationally locked sugar derivatives and analogues as potential neuraminidase inhibitors” (Eur J Med Chem, 2023) are IC50 values, retold here.

The target in the assay is Neuraminidase (Influenza A virus (A/Memphis/1/1971(H3N2)), UniProt P03471, E119V). As to the kind of experiment: Inhibition of influenza A virus H3N2 (A/Moscow/10/99) harboring E119V mutant neuraminidase using MUNANA as substrate preincubated for 30 mins followed by substrate addition by fluorescence-based assay.

What is called IC50 is the concentration at which inhibition is half-maximal. The low end stands for greater potency in that assay, the high end for weaker potency in that assay. Consider `CCC(CC)O[C@@H]1C=C(C(=O)O)C[C@H](n2nncc2-c2cccc(N)c2)[C@H]1NC(C)=O`, for which inhibition was half-maximal at 790 nM (IC50).
